Reference: ChEMBL document CHEMBL5042514, “Picolylamine-functionalized benz[e]indole squaraine dyes: Synthetic approach, characterization and in vitro efficacy as potential anticancer phototherapeutic agents” (Eur J Med Chem, 2022)

Legend:
HeLa = experiment: Induction of cell cycle arrest in human HeLa cells assessed as accumulation of hypodiploid cells in sub-G1 phase at 0.24 to 1 uM measured after 24 hrs in the absence of light by PI staining based flow cytometry analysis; format: functional; conditions: dose 0.24-1 µM
[1] = Dark toxicity against human NHDF cells assessed as reduction in cell viability incubated for 24 hrs by MTT assay; format: cell-based
[2] = Phototoxicity against human NHDF cells assessed as reduction in cell viability preincubated for 24 hrs followed by 7 mins of LED light irradiation by MTT assay; format: toxicity, cell-based
[3] = Phototoxicity ratio of IC50 for cytotoxicity against human NHDF cells assessed as reduction in cell viability in dark to IC50 for phototoxicity against human NHDF cells upon LED light irradiation; format: toxicity, cell-based; conditions: read-out: Ratio IC50
[4] = Dark toxicity against human Caco-2 cells assessed as reduction in cell viability incubated for 24 hrs by MTT assay; format: cell-based
[5] = Phototoxicity against human Caco-2 cells assessed as reduction in cell viability preincubated for 24 hrs followed by 7 mins of LED light irradiation by MTT assay; format: toxicity, cell-based; conditions: Caco-2, light or radiation study
[6] = Phototoxicity ratio of IC50 for cytotoxicity against human Caco-2 cells assessed as reduction in cell viability in dark to IC50 for phototoxicity against human Caco-2 cells upon LED light irradiation; format: toxicity, cell-based
[7] = Selectivity ratio of IC50 for phototoxicity against human NHDF cells upon LED light irradiation to IC50 for phototoxicity against human Caco-2 cells upon LED light irradiation; format: toxicity, cell-based; conditions: NHDF cells versus Caco-2 cells, read-out: Ratio IC50
[8] = Dark toxicity against human HeLa cells assessed as reduction in cell viability incubated for 24 hrs by MTT assay; format: cell-based
[9] = Phototoxicity against human HeLa cells assessed as reduction in cell viability preincubated for 24 hrs followed by 7 mins of LED light irradiation by MTT assay; format: toxicity, cell-based; conditions: light or radiation study
[10] = Phototoxicity ratio of IC50 for cytotoxicity against human HeLa cells assessed as reduction in cell viability in dark to IC50 for phototoxicity against human HeLa cells upon LED light irradiation; format: toxicity, cell-based
[11] = Selectivity ratio of IC50 for phototoxicity against human NHDF cells upon LED light irradiation to IC50 for phototoxicity against human HeLa cells upon LED light irradiation; format: toxicity, cell-based; conditions: NHDF cells versus HeLa cells, read-out: Ratio IC50
[12] = Dark toxicity against human MCF7 cells assessed as reduction in cell viability incubated for 24 hrs by MTT assay; format: cell-based
[13] = Phototoxicity against human MCF7 cells assessed as reduction in cell viability preincubated for 24 hrs followed by 7 mins of LED light irradiation by MTT assay; format: toxicity, cell-based; conditions: MCF7, light or radiation study
[14] = Phototoxicity ratio of IC50 for cytotoxicity against human MCF7 cells assessed as reduction in cell viability in dark to IC50 for phototoxicity against human MCF7 cells upon LED light irradiation; format: toxicity, cell-based
[15] = Selectivity ratio of IC50 for phototoxicity against human NHDF cells upon LED light irradiation to IC50 for phototoxicity against human MCF7 cells upon LED light irradiation; format: toxicity, cell-based; conditions: NHDF cells versus MCF7 cells, read-out: Ratio IC50
[16] = Dark toxicity against human PC-3 cells assessed as reduction in cell viability incubated for 24 hrs by MTT assay; format: cell-based
[17] = Phototoxicity against human PC-3 cells assessed as reduction in cell viability preincubated for 24 hrs followed by 7 mins of LED light irradiation by MTT assay; format: toxicity, cell-based; conditions: PC-3, light or radiation study
[18] = Phototoxicity ratio of IC50 for cytotoxicity against human PC-3 cells assessed as reduction in cell viability in dark to IC50 for phototoxicity against human PC-3 cells upon LED light irradiation; format: toxicity, cell-based
[19] = Selectivity ratio of IC50 for phototoxicity against human NHDF cells upon LED light irradiation to IC50 for phototoxicity against human PC-3 cells upon LED light irradiation; format: toxicity, cell-based; conditions: NHDF cells versus PC-3 cells, read-out: Ratio IC50
Albumin = Albumin (Homo sapiens, UniProt P02768); experiment: Binding affinity to human serum albumin assessed as binding constant by fluorescence based assay
Albumin, sequence (P02768 whole entry): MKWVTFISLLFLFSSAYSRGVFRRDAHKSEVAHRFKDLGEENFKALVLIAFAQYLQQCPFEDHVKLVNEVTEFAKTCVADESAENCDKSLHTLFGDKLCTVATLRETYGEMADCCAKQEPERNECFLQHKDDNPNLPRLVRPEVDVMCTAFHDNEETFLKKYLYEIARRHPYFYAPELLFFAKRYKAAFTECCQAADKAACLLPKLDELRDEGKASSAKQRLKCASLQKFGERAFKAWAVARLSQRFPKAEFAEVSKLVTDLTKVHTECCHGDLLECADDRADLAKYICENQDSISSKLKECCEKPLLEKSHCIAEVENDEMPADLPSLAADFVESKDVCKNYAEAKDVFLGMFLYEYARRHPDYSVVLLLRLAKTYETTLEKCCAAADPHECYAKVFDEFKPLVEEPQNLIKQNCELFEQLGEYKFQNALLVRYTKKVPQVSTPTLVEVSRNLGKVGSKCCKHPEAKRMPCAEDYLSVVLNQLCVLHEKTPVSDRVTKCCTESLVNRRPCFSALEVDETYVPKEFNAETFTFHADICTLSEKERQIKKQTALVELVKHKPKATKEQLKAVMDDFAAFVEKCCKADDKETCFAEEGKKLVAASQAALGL

Compound | IC50 at 24 h [1] | IC50 at 24 h [2] | selectivity ratio [3] | IC50 at 24 h [4] | IC50 [5] | Ratio IC50 [6] | selectivity ratio [7] | IC50 at 24 h [8] | IC50 [9] | Ratio IC50 [10] | selectivity ratio [11] | IC50 at 24 h [12] | IC50 [13] | Ratio IC50 [14] | selectivity ratio [15] | IC50 at 24 h [16] | IC50 [17] | Ratio IC50 [18] | selectivity ratio [19] | Kb (Albumin) | also measured
CCCCCCN1/C(=C/C2=C(NCc3ccccn3)C(=C/C3=[N+](CCCCCC)c4ccc5ccccc5c4C3(C)C)/C2=O)C(C)(C)c2c1ccc1ccccc21.[I-] | 4300 nM | 1280 nM | 3.4 | > 10000 nM | 4820 nM | > 2.1 | 0.26 | 4780 nM | 2580 nM | 1.9 | 0.49 | 3100 nM | 2290 nM | 1.4 | 0.56 | 6690 nM | 1530 nM | 1.3 | 0.84 | 1.64 10^5/M | Activity (HeLa): 1%
CCN1/C(=C/C2=C(N(Cc3ccccn3)Cc3ccccn3)C(=C/C3=[N+](CC)c4ccc5ccccc5c4C3(C)C)/C2=O)C(C)(C)c2c1ccc1ccccc21.[I-] | 484 nM | 184 nM | 2.6 | 328 nM | 92 nM | 3.6 | 2 | 449 nM | 113 nM | 4 | 1.63 | 534 nM | 150 nM | 3.6 | 1.23 | 393 nM | 148 nM | 2.7 | – | 5.92 10^5/M | –
CCCCCCN1/C(=C/C2=C(N(Cc3ccccn3)Cc3ccccn3)C(=C/C3=[N+](CCCCCC)c4ccc5ccccc5c4C3(C)C)/C2=O)C(C)(C)c2c1ccc1ccccc21.[I-] | 1010 nM | 695 nM | 1.4 | 2490 nM | 2130 nM | 1.2 | 0.33 | 1740 nM | 1170 nM | 1.5 | 0.59 | 1520 nM | 1190 nM | 1.3 | 0.59 | 1110 nM | 967 nM | 1.1 | 0.72 | 7.68 10^5/M | –
